Data set [1] has as its system lysosomes and MVBs/exosomes. In words: Transmission electron microscopy (TEM) of treated cells. Format: cell-based, human.
Data set [2] relates to normal cells (HBE, human mammary epithelial cells). In words: SRB cell viability assay, normal cells. Format: cell-based. The note with it: 72 hours after treatment, HBE and human mammary epithelial cells. On the procedure: The effects of Pac 1 and Pac 2 were next examined on PKR protein expression in HeLa cells using Western blot analysis. […] No reduction in normal cell viability was observed after treatment with Pac 1 or Pac 2 (FIGS. 5F and G). […] Because most of the cancer cell lines that were tested were more sensitive to Pac 1 than to Pac 2, Pac 1 was further investigated.
(§1) Cell viability assays: For SRB assays, cells (2-8×10^3/well in 100 μL of culture medium) were seeded in 96-well flat-bottomed plates and treated the next day with compounds at the indicated concentrations. After the indicated treatments, cells were fixed with trichloroacetic acid. The protein was stained with SRB, and the optical density at 570 nm was determined. Relative cell viability was calculated by setting the viability rate of the control cells (exposed only to dimethyl sulfoxide) at 100% and comparing the viability of the treated cells with that of the controls. The experiments were performed at least three times for each cell line. The viability of leukemia cell lines was determined by using a 3-(4,5-dimethylthiazol-2-yl)-2,5-diphenyltetrazolium bromide assay.
For the SRB assay, cells (2-8×10^3/well in 100 μL of culture medium) were seeded in 96-well flat-bottomed plates and treated the next day with compounds at the indicated concentrations. […] The cells were stained using SRB, and the optical density at 570 nm was determined. […]

A further data set concerns HeLa cells. As to the kind of experiment: SRB cell viability assay. Format: cell-based, human. The conditions noted are these: 72 hours after treatment. Here is the method:
(§2) Anticancer effects of PKR-targeting compounds depend on PKR expression status: To identify compounds that can target lysosomes in PKR-positive cells or MVBs/exosomes in PKR-negative cells, the 10,000-compound ChemBridge library was screened for compounds with different effects on the growth of HeLa and HeLaPKRkd cells. […] SRB assays were next used to determine cell viability after treatment with Pac 1 or Pac 2.
as §1
(§3) Identification of PKR-associated compounds and cytotoxicity studies: The library of 10,000 compounds was screened for those with different effects on the growth of HeLa and HeLaPKRkd cells. […] Treated cells were observed under a microscope to detect morphologic changes, and their viability was determined using SRB assays 2 and 3 days after treatment. […]
(§4) For the SRB assay, cells (2-8×10^3/well in 100 μL of culture medium) were seeded in 96-well flat-bottomed plates and treated the next day with compounds at the indicated concentrations. […] The cells were stained using SRB, and the optical density at 570 nm was determined. Relative cell viability was determined by setting the viability of the control cells (exposed only to dimethyl sulfoxide) at 100% and comparing their viability with that of the treated cells. […]

For data set [3], the system named is HeLaPKRkd cells. In words: SRB cell viability assay. The conditions noted are these: 72 hours after treatment. Format: cell-based, human. On the procedure: as §2, §1, §3, §4
Data set [4] relates to HeLaPKRkd cells. As to the kind of experiment: Microscopic analysis of morphologic changes. Format: cell-based, human.
Text: as §2
Identification of PKR-associated compounds and cytotoxicity studies: The library of 10,000 compounds was screened for those with different effects on the growth of HeLa and HeLaPKRkd cells. For this screening, both HeLa and HeLaPKRkd cells were seeded in 96-well plates in parallel and treated with each compound at a final concentration of 5 μg/mL. Cells treated with dimethyl sulfoxide (final concentration, 1%) were used as controls. Treated cells were observed under a microscope to detect morphologic changes, and their viability was determined using SRB assays 2 and 3 days after treatment. The compounds initially observed to have different effects on HeLa and HeLaPKRkd cells were subjected to two confirmatory screenings.

The subject of a further data set is AP-1/2/3 complexes. In words: Western blot of AP-1, AP-2 and AP-3 complex-associated proteins. The note with it: H1299 and MDA-MB-231 cells, 72 hours after treatment. Format: cell-based, human. The source says:
Western blotting was next used to evaluate proteins known to be involved in AP-1/2/3 complexes in lung (H1299) and breast (MDA-MB-231) cancer cells after treatment with Pac 1 or Pac 2. […] AP-1 and AP-2 mediate protein sorting in the endosome, trans-Golgi network, and plasma membrane. […] The impact of Pac 1 was then investigated on lysosome function by staining cells with the acidophilic dye LysoTracker Red.
Background: A western blot detects proteins with antibodies after separation by electrophoresis.

Another data set in a line: Toxicity in mice. The note with it: 50 mg/kg intravenously daily for 7 days.
The next data set concerns prion degradation. Format: cell-based, human. The note with it: HeLa cells, Ad-Prion 48 hours, 1 mM.

As to `Fc1ccc(Nc2nc(N/N=C/c3ccc4c(c3)OCO4)nc(N3CCOCC3)n2)cc1` [Pac 2, 1,3-benzodioxole-5-carbaldehyde [4-[(4-fluorophenyl)amino]-6-(4-morpholinyl)-1,3,5-triazin-2-yl]hydrazine], the “lysosomal exocytosis by TEM” value in data set [1] (HeLa cells) is “induced lysosomal exocytosis”. For the same compound, the “lysosomes and MVBs/exosomes by TEM” value in data set [1] (HeLaPKRkd cells) is listed as “destroyed MVBs/exosomes”. The normal cell viability entry in data set [2] is “No reduction”. Further, the “viability of HeLa cells” value in the data set on HeLa cells is “not sensitive”. Also, the “viability of HeLaPKRkd cells” value in the data set on HeLaPKRkd cells [3] is recorded as “suppressed more effectively by Pac 2”. Besides, the “growth of HeLaPKRkd cells by microscopy” value in the data set on HeLaPKRkd cells [4] was “suppressed the growth of HeLaPKRkd cells more effectively than did Pac 1”. The “expression of proteins associated with AP-1 (Rab7α, HSC70, AP-1γ) or AP-2 (AP-2α)” value with AP-1/2/3 complexes is given as “No reduction of expression”. In addition, in the data set “Toxicity in mice”, the “blood chemistry: aspartate aminotransferase, SGOT, SGPT, alkaline phosphatase, creatine kinase, lactate dehydrogenase levels” value is on record as “normal”. Besides, the “histopathologic examination of major organs” value in the data set “Toxicity in mice” (heart, lungs, liver, kidneys, pancreas, spleen) is recorded as “no significant changes in any major organs”.
Turning to `Cn1cnc(N)c2ncnc1-2` [Pac 3MA, 3-methyladenine], in the data set with prion degradation, the prion degradation result is “prevented prion degradation”.

(Values after US12465610B2, “Compounds and methods for the treatment of PKR-associated diseases” (Board of Regents, The University of Texas System, priority 2019, dated 2025).)
